ChEMBL document CHEMBL4196096, “Reviewing Hit Discovery Literature for Difficult Targets: Glutathione Transferase Omega-1 as an Example” (J Med Chem, 2018)

How the values were obtained:
[1] = target: T1, Glutathione S-transferase omega-1 (Homo sapiens, UniProt P78417); experiment: Inhibition of human GSTO1-1 by MMA (V) reductase assay
T1 sequence (P78417 whole entry): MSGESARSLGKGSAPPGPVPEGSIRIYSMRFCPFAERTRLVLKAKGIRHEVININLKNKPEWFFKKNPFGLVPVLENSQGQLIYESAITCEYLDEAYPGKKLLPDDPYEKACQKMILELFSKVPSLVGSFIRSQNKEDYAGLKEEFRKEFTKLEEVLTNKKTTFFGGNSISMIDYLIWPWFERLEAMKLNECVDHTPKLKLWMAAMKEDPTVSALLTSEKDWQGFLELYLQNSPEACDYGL

[2] = target: T1, Glutathione S-transferase omega-1; experiment: Inhibition of GSTO1-1 (unknown origin) by enzymatic assay
[3] = target: Glutathione S-transferase omega-1 (Homo sapiens) (UniProt P78417); experiment: Inhibition of human GSTO1-1 expressed in HEK293 cells by CDNB-GSH conjugation assay
[4] = target: Glutathione S-transferase P (Homo sapiens, UniProt P09211); experiment: Inhibition of human GSTP1-1
Sequence of Glutathione S-transferase P (P09211 whole entry): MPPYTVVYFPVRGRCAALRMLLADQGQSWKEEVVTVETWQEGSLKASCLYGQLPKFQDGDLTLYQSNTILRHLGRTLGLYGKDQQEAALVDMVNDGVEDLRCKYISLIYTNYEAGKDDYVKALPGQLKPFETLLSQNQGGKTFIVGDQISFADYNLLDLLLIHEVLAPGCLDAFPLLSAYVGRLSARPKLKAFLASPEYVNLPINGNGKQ

[5] = target: T1, Glutathione S-transferase omega-1; experiment: Inhibition of GSTO1-1 (unknown origin) pre-incubated for 1 hr before GSH addition by CDNB-GSH conjugation assay
[6] = target: T1, Glutathione S-transferase omega-1; experiment: Inhibition of GSTO1-1 (unknown origin) by 4-NPG substrate based assay

`C[C@H](CCC(=O)O)[C@H]1CC[C@H]2[C@@H]3CC[C@@H]4C[C@H](O)CC[C@]4(C)[C@H]3C[C@H](O)[C@]12C` gave an IC50 [1] of 1020 µM.
For `CCN(CC)C(=O)SSC(=O)N(CC)CC`, the IC50 [2] was < 0.4 µM.
`CC(=O)Oc1ccc2c(c1)Oc1cc(OC(C)=O)ccc1C21OC(=O)c2cc(CCl)ccc21` gave an IC50 [3] of 0.0512 µM.
For `Cc1c(C)c2c(c(C)c1OC(=O)CCC(=O)O)CC[C@@](C)(CCC[C@H](C)CCC[C@H](C)CCCC(C)C)O2` [(+)-ALPHA-TOCOPHERYL SUCCINATE], the IC50 [1] was 4 µM.
With `Cc1c(C)c2c(c(C)c1O)CC[C@@](C)(CCC[C@H](C)CCC[C@H](C)CCCC(C)C)O2` [ALPHA-TOCOPHEROL] the IC50 [4] was 0.5 µM.
`CC(C)C[C@H](NC(=O)[C@H](CCc1ccccc1)NC(=O)CN1CCOCC1)C(=O)N[C@@H](Cc1ccccc1)C(=O)N[C@@H](CC(C)C)C(=O)[C@@]1(C)CO1` [CARFILZOMIB] showed an IC50 [5] of 0.15 µM.
Work on `CC(C)c1cc2c(c(O)c1O)[C@@]1(C(=O)O)CCCC(C)(C)[C@@H]1CC2` [CARNOSIC ACID] yielded an IC50 [6] of 62 µM.
`O=[N+]([O-])c1ccc(Cl)c([N+](=O)[O-])c1` [DINITROCHLOROBENZENE] gave an IC50 [1] of 900 µM.
In the case of `C=C(CC)C(=O)c1ccc(OCC(=O)O)c(Cl)c1Cl` [ETHACRYNIC ACID], the IC50 [1] is reported as 25 µM.
Work on `O=C1C=CC(O)(c2cc(=O)c3c(O)cc(O)cc3o2)C=C1` [PROTOAPIGENONE] yielded an IC50 [6] of 1.6 µM.
